Measured values from patent US10969396B2, “In vitro method, use of an agent and collection device for the inhibition of coagulation in blood” (priority 2013, dated 2021).
Structures can show the parent of a compound that is named as a salt.

Tested on: activated partial thromboplastin time (APTT)
Assay: activated partial thromboplastin time (APTT) determination
Parameters: species or system human
Conditions: Example 1, plasma, N 48
Description: Tetrahydrofuran-2,3,4,5-tetracarboxylic acid (THTCA) was from TCI, Germany. Pristine blood collection tubes, i.e. tubes as originally provided not containing or respectively not filled or coated with additive, were from KABE Labortechnik GmbH, Germany, denoted KABEVETTE (GR).
Blood was collected from the antecubital vein from volunteers who had previously given their informed consent. […] Tubes were filled with blood completely to the mark (4.9 mL), and for tubes containing anticoagulant the blood was mixed well with the respective anticoagulant by inverting the tubes 4 times immediately after blood collection. Serum samples were treated according to the protocol of the manufacturer and used for biochemical analysis. […] Potassium EDTA plasma was also used for biochemical determinations.
The analyses of metabolites, minerals, and enzymes were performed using the automated analyzers cobas 6000 C and 6000 E. Haemostasis tests and haematologic parameters were measured by STA-R (Diagnostica Stago) analyzer and LH 780 analyzer (Beckman Coulter) respectively.

Compound	APTT Mean [s]	APTT Mean (listed as GR 15, monohydrate) [s]
O=C(O)CC(O)(CC(=O)O)C(=O)O [citrate (BD), sodium citrate]	29.71	
O=C(O)CC(O)(CC(=O)O)C(=O)O [CA, Citric acid monohydrate]		29.94
